Results from US12350341B2, “Methods for the treatment of cancer and benign lesions by ablation” (Duke University, priority 2017, dated 2025).
“And” between values parts separate entries of the source, which are not always exact repeats. Equal entries are not always repeated. Where two headings read alike, the source gives them in different places.

Columns and labels:
[1] = test system: squamous cell carcinoma tumors in the hamster cheek pouch; details: for Tumors with complete response (no visible lesion): day 7, manual high-volume injection, 13 tumors ablated; for Tumor volume as % of the initial volume (normalized tumor volume): day 7, manual intratumoral injection, average 284±350 μL pure ethanol, 13 tumors
From the text: The animal study protocol was approved by the Duke University Institutional Animal Care and Use Committee. For the manual pure ethanol ablation study, a total of 6 hamsters were used. For the rate- and viscosity-controlled study, a total of 8 hamsters were used. Tumors were induced through the topical application of dimethylbenz[a]anthracene (Sigma-Aldrich). Burns, R. A., et al., Tumor-localizing and photosensitizing properties of hematoporphyrin derivative in hamster buccal pouch carcinoma. Oral Surg Oral Med Oral Pathol, 1986. 61(4): p. 368-72. Three times a week the buccal mucosa of each cheek pouch was inverted then stretched from the mouth. An area of approximately […] was painted with a cotton swab dipped in the DMBA-mineral oil solution. The cheek pouches were painted until tumors of at least 100 uL in volume developed, at approximately 22 weeks.
Tumor volumes were measured before the injection and daily for 7 days after. […] They were only performed if the tumor volume had increased for two consecutive days after the 7 day observation period. Volumes were calculated by measuring the longest axis and the orthogonal axis and using the following formula: V=4/3π*(Rlong^2)*(Rorth). Complete response is defined as the total absence of any evidence of a tumor or raised lesion by visual examination.
For cell viability analysis, a one-Way ANOVA was used followed by a Tukey-HSD. For both phantom distribution volume and in vivo normalized tumor volume analysis, a non-parametric ANOVA was used (Kruskal-Wallis) followed by a non-parametric multiple comparisons test (Dunn's test). In comparing phantom distribution volume and in vivo normalized tumor volume, the Pearson's product moment correlation coefficient was calculated. All statistical analysis was performed in R. Normalized tumor volume was calculated by dividing by the volume at a given time point by the initial volume before treatment.

[2] = test system: HeLa human cervical carcinoma cells; test: In vitro viability study, trypan blue exclusion assay; assay type: cell-based; details: 0.5 mL solution added to 0.5 mL media, 15 seconds at room temperature, PBS control 86%
Protocol: Low passage HeLa human cervical carcinoma cells (ATCC) were maintained with Eagles minimum essential medium (MEM, Gibeo, Carlsbad, California) supplemented with 10% (vol.) fetal bovine serum, 1% (vol.) penicillin and 1% (vol.) streptomycin. Cells were passaged twice per week and maintained at 37° C. and 5% CO2. Cells were cultured in two 12-well plates and grown to 80% confluence. Immediately before the experiment, cell media was removed and 0.5 mL of fresh media was added to each well. Next, each well was treated with 0.5 mL of either ethanol (200 proof, Koptec, King of Prussia, PA), 3% (w/w) ethyl cellulose (USP, Sigma Aldrich, Rockville, MD) in ethanol or PBS (control), added directly to the media. […] Tapani, E., et al., Toxicity of ethanol in low concentrations. Experimental evaluation in cell culture. Acta Radiol, 1996. 37(6): p. 923-6. The media containing the treatment solution was then removed, each well was rinsed twice with 1 mL of PBS, and given 1 mL of fresh MEM media. After all wells had been treated, each well was rinsed one time with 1 mL of PBS, given 250 μL of […] trypsin (Gibed, Carlsbad, CA), and returned to the incubator for 5 minutes. […] Viability was then assessed with a trypan blue exclusion assay (Gibco, Carlsbad, CA and a Countess Automated Cell Counter, Invitrogen, Carlsbad, CA). […]

[3] = test system: squamous cell carcinoma tumors in the hamster cheek pouch; test: Injection rate- and viscosity-controlled ablation study, hamster cheek pouch model; assay type: in vivo; details: day 7, 50 μL injected, mean over injection rates 0.1, 1.0, 10 and 100 mL/hr
Protocol: Three percent ethyl cellulose (Sigma Aldrich)-ethanol solutions (weight by weight) were prepared by stirring at room temperature. Three percent was chosen as higher viscosities required a lockable needle to stay attached to the syringe at high injection rates. Two drops of blue food dye were added for every 1 mL of ethanol and ethyl cellulose-ethanol solutions to enhance contrast. 50 μL of either solution was injected at a rate of 0.1, 0.5, 1.0, 5.0, 10 or 35 mL/hr as controlled by a syringe pump (NE-300 Just Infusion Syringe Pump). Manual injections were approximately 100 mL/hr. A 1 mL syringe and 27 G needles connected with microtubing (Tygon Microtube Tubing, 0.25 mmID) were used for injections. On the outflow-end of the catheter tube a 27 G needle was snapped off the base to fit into the tubing.
Oral Surg Oral Med Oral Pathol, 1986. 61(4): p. 368-72. […] The cheek pouches were painted until tumors of at least 100 uL in volume developed, at approximately 22 weeks.
The average tumor volume was 195±140 μL and 50 μL of solution (either ethanol or 3% ethyl cellulose-ethanol) was injected. Solutions were injected with the syringe pump at 0.1, 1.0 or 10 mL/hr or injected manually. Tumor volume was measured before injections and at 1, 2 4 and 7 days following the injection. […] 36 total ablations were performed on 8 animals. […]

Structure (SMILES): CCO [ethanol]
- Tumors with complete response (no visible lesion) [1]: 4 of 13
- Tumors with complete response (no visible lesion) ([1]; listed as pure ethanol): 4 and 4 out of 13 and 4/13
- Tumor volume as % of the initial volume (normalized tumor volume) [1]: 30%
- Tumor volume as % of the initial volume (normalized tumor volume) ([1]; listed as pure ethanol): 30±33%
- Viability (live cell count/total cell count) [2]: 19%
- Normalized tumor volume [3]: 79±79%
